Experimental data as given in patent US7335672B2, “Vanilloid receptor ligands and their use in treatments” (Amgen Inc., priority 2004, dated 2008).

Row | melting point | Compound
1 | 268 to 270 °C | CC(=O)Nc1nc2c(Oc3cc(-c4ccc(C(F)(F)F)cc4)nc(-c4cccnc4)n3)cccc2s1 [Example 9]
2 | 211 °C | CC(=O)Nc1nc2c(Oc3cc(-c4ccc(C(F)(F)F)cc4)nc(N4CCN(C(=O)OC(C)(C)C)CC4)n3)cccc2s1 [Example 34, tert-Butyl 4-(4-(2-acetamidobenzo[d]thiazol-4-yloxy)-6-(4-(trifluoromethyl)phenyl)pyrimidin-2-yl)piperazine-1-carboxylate]
3 | 198 °C | CC(=O)Nc1nc2c(Oc3cc(-c4ccc(C(F)(F)F)cc4)nc(N4CCCC(O)C4)n3)cccc2s1 (centres unmarked) [Example 39]
4 | 277 to 278 °C | CC(=O)Nc1nc2c(Oc3cc(-c4ccc(C(F)(F)F)cc4)nc(N4CCC(C(=O)O)CC4)n3)cccc2s1 [Example 42, 1-{4-{[2-(acetylamino)-1,3-benzothiazol-4-yl]oxy}-6-[4-(trifluoromethyl)phenyl]pyrimidin-2-yl}piperidine-4-carboxylic acid]
5 | 240 °C | CC(=O)Nc1nc2c(Oc3cc(-c4ccc(C(F)(F)F)cc4)nc(NCc4cccnc4)n3)cccc2s1 [Example 53]
6 | 128 °C | CC(=O)Nc1nc2c(Oc3cc(-c4ccc(C(F)(F)F)cc4)nc(NCC4CCCN(C(=O)OC(C)(C)C)C4)n3)cccc2s1 (centres unmarked) [Example 70]
7 | 132 °C | CC(=O)Nc1nc2c(Oc3cc(-c4ccc(C(F)(F)F)cc4)nc(NC[C@@H]4CCCN4C(=O)OC(C)(C)C)n3)cccc2s1 [Example 71, tert-butyl (2S)-2-[({4-{[2-(acetylamino)-1,3-benzothiazol-4-yl]oxy}-6-[4-(trifluoromethyl)phenyl]pyrimidin-2-yl}amino)methyl]pyrrolidine-1-carboxylate]
8 | 241 °C | COCC(C)Nc1nc(Oc2cccc3[nH]c(=O)c(N)nc23)cc(-c2ccc(C(F)(F)F)cc2)n1 (centres unmarked) [Example 109]
9 | 289 °C | CC(Nc1nc(Oc2cccc3[nH]c(=O)c(N)nc23)cc(-c2ccc(C(F)(F)F)cc2)n1)c1ccccn1 (centres unmarked) [Example 113]
10 | 243 °C | COC[C@H](C)Nc1nc(Oc2cccc3[nH]c(=O)c(N)nc23)cc(-c2ccc(C(F)(F)F)cc2)n1 [Example 114]
11 | > 300 °C | CS(=O)(=O)Nc1cccc(CNc2nc(Oc3cccc4[nH]c(=O)c(N)nc34)cc(-c3ccc(C(F)(F)F)cc3)n2)c1 [Example 116, N-{3-[({4-[(3-amino-2-oxo-1,2-dihydroquinoxalin-5-yl)oxy]-6-[4-(trifluoromethyl)phenyl]pyrimidin-2-yl}amino)methyl]phenyl}methanesulfonamide]
12 | > 300 °C | CS(=O)(=O)N1CCN(c2nc(Oc3cccc4[nH]c(=O)c(N)nc34)cc(-c3ccc(C(F)(F)F)cc3)n2)CC1 [Example 117, 3-amino-5-({2-[4-(methylsulfonyl)piperazin-1-yl]-6-[4-(trifluoromethyl)phenyl]pyrimidin-4-yl}oxy)quinoxalin-2(1H)-one]
13 | 228 °C | CC(C)CN1CCCC[C@H]1CNc1nc(Oc2cccc3[nH]c(=O)c(N)nc23)cc(-c2ccc(C(F)(F)F)cc2)n1 [Example 120, (S)-3-Amino-5-(2-((1-isobutylpiperidin-2-yl)methylamino)-6-(4-(trifluoromethyl)phenyl)pyrimidin-4-yloxy)quinoxalin-2(1H)-one]
14 | 229 °C | CC(C)CN1CCCC[C@@H]1CNc1nc(Oc2cccc3[nH]c(=O)c(N)nc23)cc(-c2ccc(C(F)(F)F)cc2)n1 [Example 121, (R)-3-Amino-5-(2-((1-isobutylpiperidin-2-yl)methylamino)-6-(4-(trifluoromethyl)phenyl)pyrimidin-4-yloxy)quinoxalin-2(1H)-one]
